Assay results: patent US20210178012A1, “FOAM WOUND DRESSING COMPRISING AN ANTISEPTIC” (Coloplast A/S, priority 2018, published 2021)

What was measured:
[1] = Octenidine in foam, no surfactant: extraction from impregnated hydrophilic polyurethane foam discs; assay type: physicochemical; conditions: plain foam, 24 h extraction
Description: Discs of hydrophilic polyurethane foam were impregnated by applying a known volume of octenidine-containing solution to the surface of the foam and letting it soak into the foam matrix in a liquid:foam ratio which allowed the foam to be saturated with liquid. Afterwards, the impregnated foam was dried at RT overnight. The dried foam disc was immersed in the extraction media for 24 h and the extracted octenidine concentration was determined by UV at 285 nm

[2] = Previous zone of inhibition studies (not shown); assay type: cell-based; conditions: pure octenidine impregnated into foam without surfactants
[3] = 0.1 w % OCT in impregnation solution
[4] = 0.5 w % OCT in impregnation solution
[5] = 1.0 w % OCT in impregnation solution

CCCCCCCCN=c1ccn(CCCCCCCCCCn2ccc(=NCCCCCCCC)cc2)cc1 [Octenidine, octenidine]
Release % phosphate buffer (23 mM) [1, 3]: 7% | Release % water [1, 3]: 5% | Release % phosphate buffer (23 mM) [1, 4]: 13% | Release % water [1, 4]: 1.5% | Release % phosphate buffer (23 mM) [1, 5]: 20% | Release % water [1, 5]: 1.5% | zones in a zone of inhibition study [2]: small or no zones
